Literature values in patent US9114169B2, “Sweetening and healthy compositions and methods associated therewith” (priority 2013, dated 2015).

Legend:
[1] = fold greater than resveratrol
[2] = fold longer than resveratrol
[3] = compared with resveratrol
[4] = compared with resveratrol; remark: listed apart in the source

- cellular uptake relative to resveratrol [1]: 2-4 times
- half-life in the human body relative to resveratrol [2]: seven
- metabolic stability relative to resveratrol [3]: greater
- absorption relative to resveratrol [4]: greater absorption
SMILES: COc1cc(/C=C/c2ccc(O)cc2)cc(OC)c1 [Pterostilbene, pterostilbene]
